Experimental data as given in patent US20150307554A1, “NTS-POLYPLEX NANOPARTICLES SYSTEM FOR GENE THERAPY OF CANCER” (priority 2011, published 2015).

Key:
MDA-MB-231 cells = experiment: Internalization of NTS-polyplex via NTSR1 endocytosis with blocking assays, MDA-MB-231; format: cell-based, human; conditions: NTS 1 μM, SR48692 500 nM, sucrose 0.45 M
Protocol: (§1) The cytoplasm was stained with calcein AM (green). Cells were analyzed by confocal multi spectral imaging system TCS-SPE (Leica Mycrosystems, Wetzlar, Germany). The fluorescence was detected under the following conditions Ex/Em: 405/430 nm for the blue channel with UV light; 488/512-573 nm for the green channel with an argon laser; and 563/563-544 for the red channel with a Helium-Neon laser. We obtained 10 to 20 consecutive optical sections of 1 μm apart in the z series.

MCF7 cells = experiment: Internalization of NTS-polyplex via NTSR1 endocytosis with blocking assays, MCF7; format: cell-based, human; conditions: NTS 1 μM, SR48692 500 nM, sucrose 0.45 M
Protocol: as §1

SMILES	blocking of NTS-polyplex internalization (MDA-MB-231 cells)	blocking of NTS-polyplex internalization (MCF7 cells)
COc1cccc(OC)c1-c1cc(C(=O)NC2(C(=O)O)C3CC4CC(C3)CC2C4)nn1-c1ccnc2cc(Cl)ccc12 (stereo not shown) [SR48692]	prevented the entrance of NTS-polyplex	prevented the entrance of NTS-polyplex
OC[C@H]1O[C@@](CO)(O[C@H]2O[C@H](CO)[C@@H](O)[C@H](O)[C@H]2O)[C@@H](O)[C@@H]1O [sucrose]	blocked	blocked
